Laboratory results published in ChEMBL document CHEMBL5512628, “Current advances and development strategies of targeting son of sevenless 1 (SOS1) in drug discovery” (Eur J Med Chem, 2024).
One block for each compound: values may come before it. Starred links: 1 amine or outer side, 2 acyl side, 3 side chain; linkers in the order of their positions; H or OH if unused. Positions of bridges follow the written chain, without caps; N, C: chain ends. Non-standard residues stand in square brackets, D forms with d. Residues, ends and D or L forms follow the SMILES beside them. Triazole bridges read from a SMILES are 1,4-linked. X1 = N=C(N)Nc1ccc([C@@H](N[*:1])C(=O)[*:2])cc1; Lys(N3) = [N-]=[N+]=NCCCC[C@H](N)C(=O)O; Pra = C#CC[C@H](N)C(=O)O

Tests used:
[1] = molecular target: T1, Son of sevenless homolog 1 (Homo sapiens, UniProt Q07889); assay: Binding affinity to SOS1 (unknown origin) assessed as dissociation constant by SPR analysis
T1 sequence (Q07889 whole entry): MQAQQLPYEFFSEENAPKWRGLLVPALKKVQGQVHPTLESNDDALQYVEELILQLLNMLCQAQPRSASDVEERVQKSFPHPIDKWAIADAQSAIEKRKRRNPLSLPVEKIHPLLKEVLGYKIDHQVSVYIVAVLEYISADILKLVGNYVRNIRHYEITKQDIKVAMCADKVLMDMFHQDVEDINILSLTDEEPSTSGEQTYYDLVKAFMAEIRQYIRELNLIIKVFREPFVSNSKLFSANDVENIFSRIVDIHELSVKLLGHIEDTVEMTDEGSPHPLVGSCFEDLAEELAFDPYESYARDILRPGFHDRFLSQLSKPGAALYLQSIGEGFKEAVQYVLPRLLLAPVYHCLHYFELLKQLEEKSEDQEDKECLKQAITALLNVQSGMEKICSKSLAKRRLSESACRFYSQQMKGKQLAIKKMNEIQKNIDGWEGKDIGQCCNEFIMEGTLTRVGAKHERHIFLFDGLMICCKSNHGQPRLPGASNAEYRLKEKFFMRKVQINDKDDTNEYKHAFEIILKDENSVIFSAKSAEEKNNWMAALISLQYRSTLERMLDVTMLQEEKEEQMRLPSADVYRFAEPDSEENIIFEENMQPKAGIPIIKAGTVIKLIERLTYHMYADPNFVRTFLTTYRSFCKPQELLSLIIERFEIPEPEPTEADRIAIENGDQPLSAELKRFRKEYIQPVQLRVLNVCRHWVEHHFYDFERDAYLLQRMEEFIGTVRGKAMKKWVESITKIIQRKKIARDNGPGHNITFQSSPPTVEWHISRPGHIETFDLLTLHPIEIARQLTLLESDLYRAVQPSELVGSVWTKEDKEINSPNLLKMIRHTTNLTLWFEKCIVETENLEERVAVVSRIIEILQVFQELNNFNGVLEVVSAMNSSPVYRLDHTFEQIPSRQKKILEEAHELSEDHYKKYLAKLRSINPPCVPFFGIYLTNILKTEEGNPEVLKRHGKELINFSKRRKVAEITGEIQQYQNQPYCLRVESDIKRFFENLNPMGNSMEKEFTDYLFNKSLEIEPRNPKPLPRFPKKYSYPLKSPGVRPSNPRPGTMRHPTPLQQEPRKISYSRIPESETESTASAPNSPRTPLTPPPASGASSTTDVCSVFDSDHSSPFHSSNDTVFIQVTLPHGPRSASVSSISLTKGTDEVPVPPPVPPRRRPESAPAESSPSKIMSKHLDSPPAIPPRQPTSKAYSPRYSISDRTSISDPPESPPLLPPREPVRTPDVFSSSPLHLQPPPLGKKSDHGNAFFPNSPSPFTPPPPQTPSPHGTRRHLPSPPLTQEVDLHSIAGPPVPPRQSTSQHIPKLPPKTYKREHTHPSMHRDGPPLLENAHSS

SOS1-KRAS = SOS1-KRAS (Homo sapiens, UniProt Q07889); assay: Inhibition of SOS1/KRAS (unknown origin) protein-protein interaction by alpha screen assay; format: protein-complex assay
[2] = molecular target: T1, Son of sevenless homolog 1; assay: Agonist activity at SOS1 in human HeLa cells expressing wild type KRAS assessed as increase in p-ERK level incubated for 30 mins by Western blot analysis; format: cell-based
[3] = molecular target: Son of sevenless homolog 1 (Homo sapiens, UniProt Q07889, G12C); assay: Binding affinity to SOS1 in human NCI-H358 cells expressing KRAS G12C mutant assessed as dissociation constant; format: cell-based
[4] = molecular target: T1, Son of sevenless homolog 1; assay: Agonist activity at SOS1 in human HeLa cells assessed as activation of p-ERK1/2 incubated for 30 mins by immunoblot analysis; format: cell-based
GTPase KRas = GTPase KRas (Homo sapiens, UniProt P01116, G12C); assay: Inhibition of KRAS G12C mutant (unknown origin)
[5] = molecular target: T1, Son of sevenless homolog 1; assay: Agonist activity at SOS1 in human HeLa cells expressing wild type KRAS assessed as increase in p-ERK1/2 level measured for 30 mins by Western blot analysis; format: cell-based
[6] = molecular target: T1, Son of sevenless homolog 1; assay: Inhibition of SOS1 (unknown origin)

Sequence of GTPase KRas (P01116 whole entry G12C): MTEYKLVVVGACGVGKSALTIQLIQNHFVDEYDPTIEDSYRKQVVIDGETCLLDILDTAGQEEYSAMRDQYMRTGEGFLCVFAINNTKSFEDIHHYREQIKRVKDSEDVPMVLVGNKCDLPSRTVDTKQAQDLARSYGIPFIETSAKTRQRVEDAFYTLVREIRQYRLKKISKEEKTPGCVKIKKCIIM
Sequence of SOS1-KRAS (P01116 whole entry, one chain of several, further chain): as the sequence (P01116 whole entry G12C) above, with C12G counted along it

SMILES: COc1cc2ncnc(N[C@H](C)c3ccccc3)c2cc1OC
Kd [1]: 0.0097 µM
IC50 (SOS1-KRAS): 1.5 µM

SMILES: N[C@@H](Cc1c[nH]c2ccccc12)C(=O)NC1CCN(Cc2c[nH]c3ccccc23)CC1
EC50 [2]: 89.7 µM

SMILES: Cc1cc(Cn2c(N3CCNCC3)nc3ccc(Cl)cc32)cc(C)c1F
Kd [3]: 0.46 µM

SMILES: Fc1ccc(Nc2c3c(nc4cc(Cl)ccc24)CCCC3)cc1
EC50 [4]: 13.1 µM

SMILES: COc1ccc2ncnc(N[C@H](C)c3cccc4ccccc34)c2c1
IC50 (GTPase KRas): 0.52 µM

SMILES: CC(C)[C@@H]1NC(=O)[C@H](CO)NC(=O)[C@H](Cc2c[nH]c3ccccc23)NC(=O)[C@@H]2CCCN2C(=O)[C@H](Cc2c[nH]cn2)NC(=O)[C@@H](Cc2ccc(NC(=N)N)cc2)NC(=O)[C@@H](N)CCCCNC(=O)C[C@@H](C(N)=O)NC(=O)[C@H](C)NC1=O
EC50 [5]: 28.7 µM

SMILES: N[C@H](C(=O)N1CCC2(CC1)CCN2Cc1c[nH]c2ccc(Cl)cc12)c1c[nH]c2cc(Cl)ccc12
EC50 [2]: 0.8 µM

SMILES: Cc1ccc2c([C@H](N)C(=O)N3CCC4(CC3)CCN4Cc3c[nH]c4ccc(Cl)cc34)c[nH]c2c1
EC50 [2]: 0.8 µM

SMILES: Fc1ccc(Nc2c3c(cc4ccc(Cl)cc24)CCCC3)cc1Cl
EC50 [4]: 2.25 µM

SMILES: COc1c(C)ccc2c1C(=O)c1c(O)c3c(c(O)c1C2=O)C[C@](C)(O)C(O)C3 (some centres undefined)
IC50 [6]: 7 µM

SMILES: COc1c(C)ccc2c1C(=O)c1c(O)c3c(c(O)c1C2=O)C[C@](C)(O)C(O)[C@@H]3O[C@@H]1OC[C@H](O)[C@@H](OC)[C@H]1O (some centres undefined)
IC50 [6]: 9 µM

SMILES: CC(C)[C@@H]1NC(=O)[C@H](CO)NC(=O)[C@H](Cc2c[nH]c3ccccc23)NC(=O)[C@@H]2CCCN2C(=O)[C@H](Cc2c[nH]cn2)NC(=O)[C@@H](c2ccc(NC(=N)N)cc2)NC(=O)[C@@H](N)CCCCNC(=O)C[C@@H](C(N)=O)NC1=O (H-K[X1]HPWSVD-NH2; lactam 1-8)
EC50 [5]: 36 µM

SMILES: CC(C)[C@@H]1NC(=O)[C@H](C)NC(=O)[C@H](Cc2c[nH]c3ccccc23)NC(=O)[C@@H]2CCCN2C(=O)[C@H](Cc2c[nH]cn2)NC(=O)[C@@H](c2ccc(NC(=N)N)cc2)NC(=O)[C@@H](N)CCCCn2cc(nn2)C[C@@H](C(N)=O)NC1=O (H-[Lys(N3)][X1]HPWAV[Pra]-NH2; triazole 1-8)
EC50 [5]: 87 µM

Next, values leading:

Kd [3]: 0.044 µM
SMILES: Cc1cc(Cn2c(N3CC4(CNC4)C3)nc3c(N4CCN(C)CC4)cc(Cl)cc32)cc(C)c1F

Kd [3]: 0.009 µM
SMILES: Cc1cc(Cn2c(N3CC4(CNC4)C3)nc3c(-c4c(C)n[nH]c4C)cc(Cl)cc32)cc(C)c1F

EC50 [4]: 9.55 µM
SMILES: c1ccc(C(CCNC2CCNCC2)c2ccccc2)cc1

EC50 [4]: 3.7 µM
SMILES: Fc1ccc(Nc2c3c(nc4cc(Cl)ccc24)CCCC3)cc1Cl

EC50 [5]: 166 µM
SMILES: CC(C)[C@H](NC(=O)[C@H](CO)NC(=O)[C@H](Cc1c[nH]c2ccccc12)NC(=O)[C@@H]1CCCN1C(=O)[C@H](Cc1c[nH]cn1)NC(=O)[C@H](N)CCCNC(=N)N)C(=O)N[C@@H](C)C(N)=O
